Reference: patent US11905306B2 (priority 2021, dated 2024)

Assays:
[1] = tested on: SARS-2; test: microbe, parasite or virus in culture; assay type: cell-based; conditions: Severe acute respiratory syndrome coronavirus 2, read-out: SARS-2 VU-EC50 (μM) (A549-hACE2)
[2] = in vitro; conditions: African green monkey
[3] = tested on: Toronto 2 SARS CoV-1; test: organism not typed; assay type: cell-based; conditions: Vero C1008, 72 h, read-out: SARS-1 EC50 (μM) VeroE6
[4] = tested on: SARS-2
[5] = tested on: USA_WA1/2020 SARS CoV-2; test: microbe, parasite or virus in culture; assay type: cell-based; conditions: Severe acute respiratory syndrome coronavirus 2, Vero C1008, 72 h, read-out: SARS-2 EC50 (μM) VeroE6

With `O=C1CCCc2cc(C(=O)Nc3cccc(C#Cc4ccccn4)c3)ccc2N1` [Compound 4, 2-Oxo-N-(3-(pyridin-2-ylethynyl)phenyl)-2,3,4,5-tetrahydro-1H-benzo[b]azepine-7-carboxamide] the EC50 [1] was 1.5 µM, the CC50 [2] was 22900 nM and the EC50 [3] was 1.39 µM. For the same compound, the “SARS-2 VU-VTR @ 20 μM (A549-hACE2) (logs)” value [4] was 2.55 logs and the EC50 [5] was 1.5 µM.
`O=C(Nc1ccc(N2CCCCS2(=O)=O)cc1)c1cccc(C#Cc2ccccn2)c1` [Compound 70, N-(4-(1,1-dioxido-1,2-thiazinan-2-yl)phenyl)-3-(pyridin-2-ylethynyl)benzamide] showed an EC50 [1] of 0.82 µM, a CC50 [2] of over 30000 nM and an EC50 [3] of 1.29 µM. The “SARS-2 VU-VTR @ 20 μM (A549-hACE2) (logs)” value [4] was 2.47 logs and the EC50 [5] was 1.08 µM.
For `CC(=O)Nc1ccc(C(=O)Nc2cccc(C#Cc3ccccn3)c2)cc1F` [Compound 29, 4-Acetamido-3-fluoro-N-(3-(pyridin-2-ylethynyl)phenyl)benzamide], the EC50 [1] was 1.86 µM, the CC50 [2] was over 30000 nM and the EC50 [3] was 0.76 µM. For the same compound, the “SARS-2 VU-VTR @ 20 μM (A549-hACE2) (logs)” value [4] was 2.6 logs and the EC50 [5] was 1.07 µM.
Compound `CC(C)OC(=O)c1ccc(NC(=O)c2cccc(C#Cc3ccccn3)c2)cc1` [Compound 65, Isopropyl 4-(3-(pyridin-2-ylethynyl)benzamido)benzoate] has an EC50 [1] of 0.29 µM, a CC50 [2] of over 30000 nM and an EC50 [3] of 0.16 µM. For the same compound, the “SARS-2 VU-VTR @ 20 μM (A549-hACE2) (logs)” value [4] was 2.78 logs and the EC50 [5] was 0.46 µM.
With `O=C(Nc1cccc(C#Cc2ccccn2)c1)c1ccc(N2CCNC2=O)cc1` [Compound 14, 4-(2-Oxoimidazolidin-1-yl)-N-(3-(pyridin-2-ylethynyl)phenyl)benzamide] the EC50 [1] was 2.31 µM, the CC50 [2] was over 30000 nM and the EC50 [3] was 1.05 µM. The “SARS-2 VU-VTR @ 20 μM (A549-hACE2) (logs)” value [4] was 1.84 logs and the EC50 [5] was 1.06 µM.
Work on `O=C(Nc1ccc(C(=O)OCC2CC2)cc1)c1cccc(C#Cc2ccccn2)c1` [Compound 66, Cyclopropylmethyl 4-(3-(pyridin-2-ylethynyl)benzamido)benzoate] yielded an EC50 [1] of 0.46 µM, a CC50 [2] of over 30000 nM and an EC50 [3] of 0.49 µM. For the same compound, the “SARS-2 VU-VTR @ 20 μM (A549-hACE2) (logs)” value [4] was 1.73 logs and the EC50 [5] was 0.83 µM.
In the case of `CC(C)N1CCN(c2ccc(C(=O)Nc3cccc(C#Cc4ccccn4)c3)cc2)C1=O` [Compound 17, 4-(3-Isopropyl-2-oxoimidazolidin-1-yl)-N-(3-(pyridin-2-ylethynyl)phenyl)benzamide], the EC50 [1] is reported as 0.43 µM, the CC50 [2] is reported as over 30000 nM and the EC50 [3] is reported as 2.37 µM. The “SARS-2 VU-VTR @ 20 μM (A549-hACE2) (logs)” value [4] was 2.12 logs and the EC50 [5] was 0.61 µM.
In the case of `COc1cc(C#Cc2ccccn2)cc(NC(=O)c2ccc(N3CCCCC3=O)cc2)c1` [Compound 48, N-(3-Methoxy-5-(pyridin-2-ylethynyl)phenyl)-4-(2-oxopiperidin-1-yl)benzamide], the EC50 [1] is reported as 0.1 µM, the CC50 [2] is reported as over 30000 nM and the EC50 [3] is reported as 0.21 µM. The “SARS-2 VU-VTR @ 20 μM (A549-hACE2) (logs)” value [4] was 3.08 logs and the EC50 [5] was 0.45 µM.
`CC(=O)Nc1ccc(C(=O)Nc2cccc(C#Cc3ccccn3)c2)cc1` [Compound 5, 4-Acetamido-N-(3-(pyridin-2-ylethynyl)phenyl)benzamide] showed an EC50 [1] of 3.58 µM, a CC50 [2] of over 30000 nM and an EC50 [3] of 2.14 µM. For the same compound, the “SARS-2 VU-VTR @ 20 μM (A549-hACE2) (logs)” value [4] was 2.05 logs and the EC50 [5] was 3.89 µM.
With `O=C(Nc1ccc(C(=O)Nc2cccc(C#Cc3ccccn3)c2)cc1)c1ccc(F)cc1` [Compound 26, 4-Fluoro-N-(4-((3-(pyridin-2-ylethynyl)phenyl)carbamoyl)phenyl)benzamide] the EC50 [1] was 0.69 µM, the CC50 [2] was over 30000 nM and the EC50 [3] was 0.35 µM. The “SARS-2 VU-VTR @ 20 μM (A549-hACE2) (logs)” value [4] was 1.16 logs and the EC50 [5] was 0.49 µM.
For `O=C(Nc1cccc(C#Cc2ccccn2)c1)c1ccc(-c2ccn[nH]2)cc1` [Compound 40, 4-(1H-Pyrazol-5-yl)-N-(3-(pyridin-2-ylethynyl)phenyl)benzamide], the EC50 [1] was 0.81 µM, the CC50 [2] was 38600 nM and the EC50 [3] was 0.53 µM. For the same compound, the “SARS-2 VU-VTR @ 20 μM (A549-hACE2) (logs)” value [4] was 3.2 logs and the EC50 [5] was 1 µM.
With `COc1cc(C#Cc2ccccn2)cc(NC(=O)c2ccc3c(c2)CCC(=O)N3)c1` [Compound 46, N-(3-Methoxy-5-(pyridin-2-ylethynyl)phenyl)-2-oxo-1,2,3,4-tetrahydroquinoline-6-carboxamide] the EC50 [1] was 0.53 µM, the CC50 [2] was over 30000 nM and the EC50 [3] was 0.83 µM. The “SARS-2 VU-VTR @ 20 μM (A549-hACE2) (logs)” value [4] was 2.66 logs and the EC50 [5] was 0.78 µM.
Compound `COC(=O)c1ccc(C(=O)Nc2cccc(C#Cc3ccccn3)c2)cc1` [Compound 43, Methyl 4-((3-(pyridin-2-ylethynyl)phenyl)carbamoyl)benzoate] has an EC50 [1] of 0.58 µM, a CC50 [2] of over 30000 nM and an EC50 [3] of 0.26 µM. The “SARS-2 VU-VTR @ 20 μM (A549-hACE2) (logs)” value [4] was 2.36 logs and the EC50 [5] was 0.52 µM.
`CN1C(=O)CCc2cc(C(=O)Nc3cccc(C#Cc4ccccn4)c3)ccc21` [Compound 2, 1-Methyl-2-oxo-N-(3-(pyridin-2-ylethynyl)phenyl)-1,2,3,4-tetrahydroquinoline-6-carboxamide] gave an EC50 [1] of 3.59 µM, a CC50 [2] of over 30000 nM and an EC50 [3] of 1.46 µM. For the same compound, the “SARS-2 VU-VTR @ 20 μM (A549-hACE2) (logs)” value [4] was 3.32 logs and the EC50 [5] was 2.55 µM.
`CC(C)n1nccc1-c1ccc(NC(=O)c2cccc(C#Cc3ccccn3)c2)cc1` [Compound 69, N-(4-(1-isopropyl-1H-pyrazol-5-yl)phenyl)-3-(pyridin-2-ylethynyl)benzamide] gave an EC50 [1] of 0.22 µM, a CC50 [2] of over 30000 nM and an EC50 [3] of 0.24 µM. For the same compound, the “SARS-2 VU-VTR @ 20 μM (A549-hACE2) (logs)” value [4] was 3.3 logs and the EC50 [5] was 0.45 µM.
